Measured values taken from patent US20090326196A1 (priority 2006, published 2009).
Square brackets hold non-standard residues; d marks the D form. Peptide text beside a SMILES is read from it. Leu(5,5,5,5',5',5'-F6) = N[C@@H](CC(C(F)(F)F)C(F)(F)F)C(=O)O

Key:
[1] = tested on: trypsin (from bovine pancreas, EC 3.4.21.4); experiment: 1 μg trypsin in 200 μL of PBS buffer (pH 7.4, 10 mM PO4^3−, 150 mM NaCl); conditions: 37° C., up to 3 h
[2] = target: T1, trypsin (from bovine pancreas, EC 3.4.21.4) (Bos taurus, UniProt P00760); experiment: in vitro; assay type: in vitro ADME
T1 construct: trypsin (from bovine pancreas, EC 3.4.21.4); from tissue; host or cells: bovine pancreas
T1 sequence (P00760 24-246): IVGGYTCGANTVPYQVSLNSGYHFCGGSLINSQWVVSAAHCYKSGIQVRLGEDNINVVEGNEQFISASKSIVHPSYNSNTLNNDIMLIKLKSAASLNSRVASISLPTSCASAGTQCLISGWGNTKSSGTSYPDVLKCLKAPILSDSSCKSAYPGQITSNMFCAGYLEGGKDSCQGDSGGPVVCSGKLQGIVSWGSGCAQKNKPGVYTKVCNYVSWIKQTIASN
Method: The proteolytic stability of peptides towards trypsin (from bovine pancreas, EC 3.4.21.4) was determined by an analytical RP-HPLC assay. […] The enzyme concentration (in 1 mM HCl) was determined by absorbance at 280 nm. […] The amount of enzyme was optimized so that kinetics of proteolytic reactions could be assayed by RP-HPLC (detection at 230 nm). The peptides were incubated with trypsin at 37° C. over a period of 3 h. Aliquots (10 μL) were taken at different reaction times, diluted with 0.2% TFA (440 μL) and stored at −80° C. […] The remaining full-length peptide concentration was normalized with respect to the initial concentration.
where A is the normalized concentration of peptides; k is the pseudo first order rate constant; t is the reaction time in mins; and [A]0 is the initial concentration of peptides. Each fragment cleaved from the full-length peptides was identified by ESI-MS so that cleavage patterns could be established and compared.

[3] = tested on: human red blood cells (hRBC); assay type: cell-based
Method: The selectivity with which the peptides are able to lyse bacterial cells compared to mammalian cells was interrogated by a hemolysis assay against human red blood cells (hRBC). […] Our results are consistent with this trend.
Fresh human red blood cells (hRBCs) were centrifuged at 3,500 rpm and washed with PBS buffer until the supernatant was clear. The hRBCs were then resuspended and diluted to a final concentration of 1% (v/v) in PBS and stored at 4° C. […] An aliquot (50 μL) of supernatant was transferred to a new 96-well plate containing 50 μL H2O in each well. The absorbance at 415 nm was measured using a plate reader. Wells containing melittin at 100-400 μg/mL served as positive controls, and wells containing only buffer and hRBCs served as negative controls. The percentage hemolysis was calculated using the equation:
where complete hemolysis is defined as the average absorbance of all wells containing 100-400 μg/[…] melittin.

[4] = target: DPP IV (from porcine kidney, EC 3.4.14.5) (Sus scrofa, UniProt P22411); conditions: for hydrolysis products by RP-HPLC (FIG. 38): F8: 48 h at 20 U/L and 1 h at 200 U/L, F89: 20 and 60 mins; for fragments detected after incubation with DPP IV: after 24 h incubation
DPP IV (from porcine kidney, EC 3.4.14.5) (Sus scrofa, UniProt P22411), sequence (P22411 whole entry, the tested form may be a part): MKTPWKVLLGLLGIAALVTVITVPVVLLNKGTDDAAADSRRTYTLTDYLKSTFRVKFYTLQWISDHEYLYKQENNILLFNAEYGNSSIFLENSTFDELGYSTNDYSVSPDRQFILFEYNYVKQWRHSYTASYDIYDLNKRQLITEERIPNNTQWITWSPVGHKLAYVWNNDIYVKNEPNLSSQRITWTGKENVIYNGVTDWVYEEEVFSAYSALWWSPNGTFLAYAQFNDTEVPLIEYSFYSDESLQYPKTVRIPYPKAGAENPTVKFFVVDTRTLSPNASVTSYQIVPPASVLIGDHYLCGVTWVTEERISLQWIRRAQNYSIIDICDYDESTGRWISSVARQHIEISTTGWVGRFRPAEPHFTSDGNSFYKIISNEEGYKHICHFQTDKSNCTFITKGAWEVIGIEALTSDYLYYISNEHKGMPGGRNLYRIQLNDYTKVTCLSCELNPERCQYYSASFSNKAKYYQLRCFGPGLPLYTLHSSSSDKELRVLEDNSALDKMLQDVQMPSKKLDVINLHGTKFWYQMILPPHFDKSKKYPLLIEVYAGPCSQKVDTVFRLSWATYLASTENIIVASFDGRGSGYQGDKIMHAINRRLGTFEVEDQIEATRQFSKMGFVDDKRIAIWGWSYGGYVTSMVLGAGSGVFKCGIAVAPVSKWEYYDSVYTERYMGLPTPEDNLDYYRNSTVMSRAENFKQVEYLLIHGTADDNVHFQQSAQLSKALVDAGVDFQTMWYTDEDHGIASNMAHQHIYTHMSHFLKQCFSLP
Method: Proteolytic Stability. […] DPP IV has a relative specific requirement for substrate residues at P2, P1, P1′ and P2′ positions regarding the scissile Ala-Glu amide bond. Especially, at P1 position, Pro and Ala are highly favored. […] The proteolytic stability of peptides towards DPP IV (from porcine kidney, EC 3.4.14.5) was determined by analytical RP-HPLC assay (detection at 230 nm). A chromogenic substrate, Gly-Pro-p-nitroanilide, was employed to calibrate specific activity by measuring absorbance at 410 nm using Δε=8800 M^−1·cm^−1 in 100 mM Tris-HCl, pH 8.0. […] Reactions were quenched with 600 μL of 0.2% TFA at time intervals and stored on dry ice until the analysis. An analytical C18 column [J. T. Baker C18, 5 μm, 4 mm×250 mm] was used for separation and quantitation of intact and digested peptides with a binary solvent system can/H2O/0.1% TFA. First order rate constants were obtained as the fitted value±one standard deviation by fitting with the equation: […]
where A is the concentration of peptides; k the first order rate constant; t the reaction time in min; and [A]0 the initial concentration of peptides. The fragments derived from the full-length peptides were manually collected and identified by ESI-MS.

[5] = tested on: DPP IV (from porcine kidney, EC 3.4.14.5); experiment: DPP IV 20 unit/L in 50 mM Tris-HCl, 1 mM EDTA, pH 7.6; conditions: 37° C., up to 48 h
[6] = tested on: trypsin (from bovine pancreas, EC 3.4.21.4); experiment: 0.5 μg trypsin in 200 μL of PBS buffer (pH 7.4, 10 mM PO4^3−, 150 mM NaCl); conditions: 37° C., up to 3 h

## GIGKFLHAAKKFAKAFVAEIMNS
[1]
  fragment found: M2 (1-14), first_seen

## CC(C)C[C@H](NC(=O)CNC(=O)[C@H](C)NC(=O)[C@@H](N)CCCNC(=N)N)C(=O)N[C@@H](CCC(N)=O)C(=O)N[C@@H](Cc1ccccc1)C(=O)N1CCC[C@H]1C(=O)N[C@H](C(=O)NCC(=O)N[C@@H](CCCNC(=N)N)C(=O)N[C@H](C(=O)N[C@@H](Cc1c[nH]cn1)C(=O)N[C@@H](CCCNC(=N)N)C(=O)N[C@@H](CC(C(F)(F)F)C(F)(F)F)C(=O)N[C@@H](CC(C(F)(F)F)C(F)(F)F)C(=O)N[C@@H](CCCNC(=N)N)C(=O)N[C@@H](CCCCN)C(=O)O)C(C)C)C(C)C [BII5F2] (H-RAGLQFPVGRVHR[Leu(5,5,5,5',5',5'-F6)][Leu(5,5,5,5',5',5'-F6)]RK-OH)
[2]
  fold more resistant to hydrolysis by trypsin: ~3 fold

## CC[C@H](C)[C@H](NC(=O)CN)C(=O)NCC(=O)N[C@@H](CCCCN)C(=O)N[C@@H](Cc1ccccc1)C(=O)N[C@@H](CC(C(F)(F)F)C(F)(F)F)C(=O)N[C@@H](Cc1cnc[nH]1)C(=O)N[C@@H](C)C(=O)N[C@@H](C)C(=O)N[C@@H](CCCCN)C(=O)N[C@@H](CCCCN)C(=O)N[C@@H](Cc1ccccc1)C(=O)N[C@@H](C)C(=O)N[C@@H](CCCCN)C(=O)N[C@@H](C)C(=O)N[C@@H](Cc1ccccc1)C(=O)N[C@H](C(=O)N[C@@H](C)C(=O)N[C@@H](CCC(=O)O)C(=O)N[C@@H](CC(C(F)(F)F)C(F)(F)F)C(=O)N[C@@H](CCSC)C(=O)N[C@@H](CC(N)=O)C(=O)N[C@@H](CO)C(N)=O)C(C)C [Peptide M2F2] (H-GIGKF[Leu(5,5,5,5',5',5'-F6)]HAAKKFAKAFVAE[Leu(5,5,5,5',5',5'-F6)]MNS-NH2)
[2]
  more stable to proteolysis by a factor, relative to M2: ~1.2
[3]
  hemolytic activity relative to parent peptide, in words: slightly more hemolytic

## CC[C@H](C)[C@H](NC(=O)[C@H](Cc1ccccc1)NC(=O)[C@H](CCC(=O)O)NC(=O)[C@H](CCCCN)NC(=O)[C@H](C)NC(=O)[C@H](C)NC(=O)[C@H](CCC(N)=O)NC(=O)CNC(=O)[C@H](CCC(=O)O)NC(=O)[C@H](CC(C)C)NC(=O)[C@H](Cc1ccc(O)cc1)NC(=O)[C@H](CO)NC(=O)[C@H](CO)NC(=O)[C@@H](NC(=O)[C@H](CC(=O)O)NC(=O)[C@H](CO)NC(=O)[C@@H](NC(=O)[C@H](Cc1ccccc1)NC(=O)[C@@H](NC(=O)CNC(=O)[C@H](CCC(=O)O)NC(=O)[C@H](CC(C(F)(F)F)C(F)(F)F)NC(=O)[C@@H](N)Cc1cnc[nH]1)[C@@H](C)O)[C@@H](C)O)C(C)C)C(=O)N[C@@H](C)C(=O)N[C@@H](Cc1c[nH]c2ccccc12)C(=O)N[C@@H](CC(C)C)C(=O)N[C@H](C(=O)N[C@@H](CCCCN)C(=O)NCC(=O)N[C@@H](CCCNC(=N)N)C(N)=O)C(C)C [Peptide F8]
[4]
  hydrolysis products by RP-HPLC (FIG. 38): No detectable hydrolysis products
  fragments detected after incubation with DPP IV: no fragments were detected

## GIGKFXHAAKKFAKAFVAEXMNS
[1]
  fragment found: M2F2 (1-14), first_seen

## magainin 2 [Peptide M2, reference compound]
[2]
  time to complete hydrolysis: 33 min

## HXXGTFTSDVSSYLEGQAAKEFIAWLVKGR
[5]
  not cleaved: no fragments were detected after 24 h incubation

## HAXGTFTSDVSSYLEGQAAKEFIAWLVKGR
[5]
  fragment found: corresponding peptide fragment GLP-1 (9-36) amide, major

## buforin II[1-21] [BII1, reference compound]
[2]
  initial P1 site of cleavage: R17

## CC[C@H](C)[C@H](NC(=O)[C@H](Cc1ccccc1)NC(=O)[C@H](CCC(=O)O)NC(=O)[C@H](CCCCN)NC(=O)[C@H](C)NC(=O)[C@H](C)NC(=O)[C@H](CCC(N)=O)NC(=O)CNC(=O)[C@H](CCC(=O)O)NC(=O)[C@H](CC(C)C)NC(=O)[C@H](Cc1ccc(O)cc1)NC(=O)[C@H](CO)NC(=O)[C@H](CO)NC(=O)[C@@H](NC(=O)[C@H](CC(=O)O)NC(=O)[C@H](CO)NC(=O)[C@@H](NC(=O)[C@H](Cc1ccccc1)NC(=O)[C@@H](NC(=O)CNC(=O)[C@H](CC(C(F)(F)F)C(F)(F)F)NC(=O)[C@H](CC(C(F)(F)F)C(F)(F)F)NC(=O)[C@@H](N)Cc1cnc[nH]1)[C@@H](C)O)[C@@H](C)O)C(C)C)C(=O)N[C@@H](C)C(=O)N[C@@H](Cc1c[nH]c2ccccc12)C(=O)N[C@@H](CC(C)C)C(=O)N[C@H](C(=O)N[C@@H](CCCCN)C(=O)NCC(=O)N[C@@H](CCCNC(=N)N)C(N)=O)C(C)C [Peptide F89]
[4]
  hydrolysis products by RP-HPLC (FIG. 38): No detectable hydrolysis products
  fragments detected after incubation with DPP IV: no fragments were detected

## HXEGTFTSDVSSYLEGQAAKEFIAWLVKGR
[5]
  not cleaved: no fragments were detected after 24 h incubation

## TRSSRAGLQFPVGRVHRXXRK
[6]
  cleaved bond: initial P1 site of cleavage BII1F2 (R14), first_seen
  fragment found: BII1F2 (6-21), first_seen

## CC[C@H](C)[C@H](NC(=O)[C@H](Cc1ccccc1)NC(=O)[C@H](CCC(=O)O)NC(=O)[C@H](CCCCN)NC(=O)[C@H](C)NC(=O)[C@H](C)NC(=O)[C@H](CCC(N)=O)NC(=O)CNC(=O)[C@H](CCC(=O)O)NC(=O)[C@H](CC(C)C)NC(=O)[C@H](Cc1ccc(O)cc1)NC(=O)[C@H](CO)NC(=O)[C@H](CO)NC(=O)[C@@H](NC(=O)[C@H](CC(=O)O)NC(=O)[C@H](CO)NC(=O)[C@@H](NC(=O)[C@H](Cc1ccccc1)NC(=O)[C@@H](NC(=O)CNC(=O)[C@H](CC(C(F)(F)F)C(F)(F)F)NC(=O)[C@H](C)NC(=O)[C@@H](N)Cc1c[nH]cn1)[C@@H](C)O)[C@@H](C)O)C(C)C)C(=O)N[C@@H](C)C(=O)N[C@@H](Cc1c[nH]c2ccccc12)C(=O)N[C@@H](CC(C)C)C(=O)N[C@H](C(=O)N[C@@H](CCCCN)C(=O)NCC(=O)N[C@@H](CCCNC(=N)N)C(N)=O)C(C)C [Peptide F9]
[4]; hexafluoroleucine at P1′ and P2′ positions
  resistance to DPP IV, in words: moderate enhanced resistance
